# According to article PMC6013488, “A widely-applicable high-throughput cellular thermal shift assay (CETSA) using split Nano Luciferase” (Scientific Reports, 2018):
# Structures can show the parent of a compound that is named as a salt. Where two headings read alike, the source gives them in different places.
# What was measured:
# CDK9-86b = target: T1, CDK9-86b (Homo sapiens, UniProt P50750); assay: SplitLuc CETSA of CDK9-86b; format: cell-based; details: 45 °C for 3.5 min, 96-well PCR plate
# T1 construct: Size (a.a., untagged); expressed in transfected cells; host or cells: HEK293T
# T1 sequence (P50750 whole entry): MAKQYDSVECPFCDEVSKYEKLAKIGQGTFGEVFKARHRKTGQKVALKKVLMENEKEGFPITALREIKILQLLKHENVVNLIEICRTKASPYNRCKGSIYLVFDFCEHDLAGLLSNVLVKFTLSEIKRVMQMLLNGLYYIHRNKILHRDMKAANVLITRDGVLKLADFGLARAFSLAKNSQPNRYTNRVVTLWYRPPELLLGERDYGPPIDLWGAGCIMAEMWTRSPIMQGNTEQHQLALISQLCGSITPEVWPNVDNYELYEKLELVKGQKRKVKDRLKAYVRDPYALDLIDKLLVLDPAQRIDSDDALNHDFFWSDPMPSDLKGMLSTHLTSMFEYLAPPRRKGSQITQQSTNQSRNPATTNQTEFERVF
# Procedure: For CDK9, 2 µg of DNA per well was used. After 24 h (48 h for CDK9), cells were harvested by trypsinization and resuspended at 1 × 10^6 cells/mL (unless otherwise indicated) in CETSA buffer containing DPBS (with CaCl2 and MgCl2) plus 1 g/L glucose, 1X Halt protease inhibitor cocktail (ThermoFisher), and 0.5% DMSO (DMSO was not added for experiments that received subsequent compound and vehicle treatment). For temperature range experiments (without compound or single dose), samples were aliquoted to PCR strips at 30 µL per tube. […] Samples were then heated for 3.5 min using a pre-heated thermal cycler, allowed to equilibrate to room temperature, and 6 µL of 6% NP40 was added to each well. […] 11S (GenScript) and furimazine substrate (from Nano-Glo Luciferase Assay System, Promega) were added, at final concentrations of 100 nM and 0.5X, respectively, and samples were analyzed for luminescence intensity using a ViewLux High-throughput CCD imager (Perkin Elmer) equipped with clear filters.
# Cells were transfected and harvested as above (384-well protocol). Cells were dispensed (5 µL cell/well) into 1,536-well white plates (Aurora, cyclic olefin polymer, cat# EWB041000A) using a Multidrop Combi. […] One µL of 6% NP40 was added per well and plates were incubated for 30 min to allow cell lysis followed by addition of 3 µL 11S (final concentration 100 nM) and furimazine substrate. Plates were centrifuged and analyzed for luminescence intensity using a ViewLux reader. For the LDHA and CDK9 screens, a final concentration of 0.5X and 0.25X furimazine was used, respectively. Normalization controls include DMSO and GSK2837808A-treated samples or unheated samples for LDHA and CDK9, respectively. […] Subsequently, 500 pM (final) of 86b was added to the wells, followed by addition of 100 nM 11S and 0.25X furimazine substrate (final).
# CDK9/cyclin K = target: T2, CDK9/cyclin K (Homo sapiens, UniProt P50750); assay: TR-FRET Lanthascreen Eu Kinase Binding assay; details: for Curve Class: classifies curves by quality of fit, efficacy and number of asymptotes; for Efficacy: difference between highest and lowest activity across concentration range; for Efficacy / Max Resp: in %
# T2 construct: purchased Invitrogen (ThermoFisher) PV4335
# T2 sequence (P50750 whole entry): as above
# T2 sequence (O75909 whole entry partner): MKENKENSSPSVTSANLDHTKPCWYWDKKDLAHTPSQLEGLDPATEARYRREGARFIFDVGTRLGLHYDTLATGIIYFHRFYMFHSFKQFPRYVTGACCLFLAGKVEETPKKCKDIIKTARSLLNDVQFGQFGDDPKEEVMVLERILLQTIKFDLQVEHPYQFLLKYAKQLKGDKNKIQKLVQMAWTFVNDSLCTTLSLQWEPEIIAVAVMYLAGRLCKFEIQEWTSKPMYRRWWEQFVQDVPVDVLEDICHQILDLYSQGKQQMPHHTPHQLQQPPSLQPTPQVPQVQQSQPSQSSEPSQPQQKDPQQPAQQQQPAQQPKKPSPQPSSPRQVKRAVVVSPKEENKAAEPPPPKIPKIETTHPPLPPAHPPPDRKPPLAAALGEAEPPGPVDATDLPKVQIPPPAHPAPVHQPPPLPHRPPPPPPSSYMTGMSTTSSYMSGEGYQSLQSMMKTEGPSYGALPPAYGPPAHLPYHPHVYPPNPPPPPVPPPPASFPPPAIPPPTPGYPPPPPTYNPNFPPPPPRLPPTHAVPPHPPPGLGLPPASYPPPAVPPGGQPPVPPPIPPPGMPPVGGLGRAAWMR
# Source text: The TR-FRET Lanthascreen Eu Kinase Binding assay for CDK9/cyclin K was purchased from ThermoFisher and performed as per manufacturer instructions.
# [1] = logarithm of AC50, read-out: Log AC50 (converted)
# [2] = concentration at which half maximal activity is observed, 7-point qHTS, read-out: AC50
stabilization of CDK9-86b in follow-up experiments (CDK9-86b),AC50 (CDK9/cyclin K; [1]) [nM],AC50 (CDK9/cyclin K; [2]) [nM],SMILES,Curve Class (CDK9/cyclin K),Efficacy (CDK9/cyclin K),Max Resp (CDK9/cyclin K)
stabilize,,,COc1cc(F)ccc1-c1ncnc(Nc2cccc(C[S+](C)(=N)[O-])c2)n1 (centres unmarked) [BAY-1143572],-1.2,-55.3,-100.3
stabilize,,,COc1ccc(F)cc1-c1cc(NC(=O)[C@@H]2CCCNC2)ncc1Cl [CDK-IN-2],5,0.0,-98.0
,631,,O=C1NC(=O)C(c2cnc3ccccn23)=C1c1cn2c3c(cc(F)cc13)CN(C(=O)N1CCCCC1)CC2 [LY2090314],-1.1,-79.5,-83.9
,,,CC(C)c1c2cc(-c3ccnc(N[C@H]4CC[C@H](NC5CCOCC5)CC4)n3)ccc2nn1C [LY2857785],5,-28.1,-89.7
,,299,C[C@@H](Oc1ccc2[nH]nc(/C=C/c3cnn(CCO)c3)c2c1)c1c(Cl)cncc1Cl [LY2874455],-1.1,-87.6,-91.8
,,,Cc1ccc(C(N)=O)cc1Nc1nccc(-c2cn(C(C)C)c3cnccc23)n1 [NCGC00263020-01],-1.1,-90.3,-99.8
,,,"Cc1ccc([N+](=O)[O-])cc1[S+](=O)([O-])N(C)/N=C/c1cnc2ccc(Br)cn12 [NCGC00346500-05, PIK-75]",5,-24.5,-95.2
,,189,N#Cc1ccnc(Nc2cc(C3CCN(C4COC4)CC3)cc(N3CCC(F)(F)C3)n2)c1 [NCGC00384250-01],-1.2,-76.1,-87.1
,,,O=[N+]([O-])c1cccc2[nH]c(CNc3nc(N4CCOCC4)nc4c3ncn4-c3ccsc3)nc12 [NCGC00386926-01],-1.2,-69.1,-72.6
,,,"Cc1ccc([N+](=O)[O-])cc1[S+](=O)([O-])N(C)/N=C\c1cnc2ccc(Br)cn12 [NCGC00387028-01, PIK-75]",5,0.0,-93.4
,,,Oc1cc(CNC(=S)/C=C/c2cc(O)c(O)c(Br)c2)cc(O)c1O [NT 157],-1.4,-60.3,-8.3
,,,C[S+](=O)([O-])N1CCC(NC(=O)c2[nH]ncc2NC(=O)c2c(Cl)cccc2Cl)CC1 [NVP-LCQ195],-1.2,-72.2,-98.8
,,,CC(=O)c1cnc2ccc(-c3cc(Cl)c(O)c(Cl)c3)nc2c1N[C@H]1CC[C@H](CN(C)C)CC1 [OTSSP167],-1.1,-82.5,-98.5
,,,CN(c1ncccc1CNc1nc(Nc2ccc3c(c2)CC(=O)N3)ncc1C(F)(F)F)[S+](C)(=O)[O-] [PF-562271],-1.1,-92.3,-101.3
,,,CC(C)CC(=O)Nc1[nH]nc2c1CN(C(=O)C1CCN(C)CC1)C2(C)C [PHA-793887],-1.1,-87.0,-99.5
,,,COc1ccccc1-c1c[nH]c2ncc(-c3cncc(C(=O)N(C)C)c3)cc12 [PPY A],-1.1,-90.1,-95.0
,,,C1=C/COCc2cc(ccc2OCCN2CCCC2)Nc2nccc(n2)-c2cccc(c2)COC/1 [Pacritinib],-1.2,-64.6,-95.3
,,,CC(=O)c1c(C)c2cnc(Nc3ccc(N4CCNCC4)cn3)nc2n(C2CCCC2)c1=O [Palbociclib (PD-0332991) HCl],-1.1,-92.3,-91.0

stabilization of CDK9-86b in follow-up experiments (CDK9-86b),AC50 (CDK9/cyclin K; [1]) [nM],AC50 (CDK9/cyclin K; [2]) [nM],SMILES,Curve Class (CDK9/cyclin K),Efficacy (CDK9/cyclin K),Max Resp (CDK9/cyclin K)
,631,,N[C@H]1CC[C@H](Nc2nc(Nc3ccc(C(=O)N4CCCCC4)cc3)c3ncn(-c4cccc(F)c4)c3n2)CC1 [Purfalcamine],-1.2,-78.7,-96.3
,,,CC(C)[C@H](CO)Nc1nc(Nc2cccc(Cl)c2)c2ncn(C(C)C)c2n1 [Purvalanol A],-1.1,-79.6,-72.7
,,,O=C(NCc1cccc(O)c1)Nc1nc(-c2ccncc2)cs1 [RKI-1447],-1.2,-64.8,-59.5
,,,Cc1cc(Nc2cc(NC(=O)c3c(Cl)cccc3Cl)ccn2)nc(N)n1 [RO495],-1.1,-93.8,-99.1
,,,Cn1cc(C2=C(c3cn(CCCSC(=N)N)c4ccccc34)C(=O)NC2=O)c2ccccc21 [Ro 31-8220 (mesylate)],-1.3,-42.0,-60.6
,,,CC[C@H](CO)Nc1nc(NCc2ccccc2)c2ncn(C(C)C)c2n1 [Roscovitine],-1.1,-100.3,-97.7
stabilize,,,CN1C/C=C/CCOc2cccc(c2)-c2ccnc(n2)Nc2cccc(c2)C1 [SB1317],5,-6.2,-95.8
,,,COc1ccc2c(c1)/C(=C/c1cnc[nH]1)C(=O)N2 [SU9516],-1.1,-93.0,-90.2
,,,CCS(=O)(=O)c1cccc(-c2cc(C(=O)NC3CCN(C)CC3)c(C)c3[nH]c4ncc(C)cc4c23)c1 [TAK-901],-1.1,-101.2,-96.3
,,,O=C1OC(/C=C/c2ccccc2)=NC/1=C\c1cccnc1 [TC-DAPK 6],-1.2,-71.2,-68.2
,,,Oc1ccc(-c2ccc(-c3cc(Nc4cccc(CNC5CC5)c4)[nH]n3)cc2)c(O)c1 [TCS-2312],-1.1,-85.0,-94.1
,,,N#C/C(=C\c1ccc(O)c(O)c1)C(=O)NCCCNC(=O)/C(C#N)=C/c1ccc(O)c(O)c1 [Tyrphostin AG 537],-1.1,-98.0,-83.8
,,,CN[C@@H]1C[C@H]2O[C@@](C)([C@@H]1OC)n1c3ccccc3c3c4c(c5c6ccccc6n2c5c31)C(=O)N[C@H]4O [UCN-01],-1.1,-83.5,-93.0
,,,CC[C@@](C)(Nc1ccnc(-c2c[nH]c3ncccc23)n1)C(=O)NCC(F)(F)F [VX-509 (Decernotinib)],-1.1,-91.7,-97.1
,,,CN1CC[C@@H](c2c(O)cc(O)c3c(=O)cc(-c4ccc(C(F)(F)F)cc4Cl)oc23)[C@@H]1CO [Voruciclib],-1.1,-95.6,-95.8
,,,CC(C)c1cc(CNc2nc(Nc3cc(C4CC4)[nH]n3)cc(N3CCN(C)CC3)n2)on1 [XL-228],-1.1,-97.1,-96.7
,,,O=C1NCCSc2c1sc1ccc(O)cc21 [kb-NB142-70],-1.1,-82.7,-91.1

SMILES,stabilization of CDK9-86b in follow-up experiments (CDK9-86b),AC50 (CDK9/cyclin K; [1]) [nM],AC50 (CDK9/cyclin K; [2]) [nM],Curve Class (CDK9/cyclin K),Efficacy (CDK9/cyclin K),Max Resp (CDK9/cyclin K)
CN1CCN(Cc2ccc(Nc3ncc(Cl)c(Nc4ccccc4S(=O)(=O)N(C)C)n3)cc2)CC1 [TP-0903],,,68.7,-1.2,-74.0,-96.9
